“And” between values parts separate entries of the source, which are not always exact repeats. Identical values can stand only once.
Legend:
[1] = target: T1, recombinant human PPARα (GST-PPARα) (Homo sapiens, UniProt Q07869); experiment: Scintillation Proximity Assay, displacement of [3H2]Compound A from PPARα; format: binding; conditions: human PPARα binding; read-out: IC50 (μM: SPA or BND) Alpha
T1 construct: The full length human cDNAs for PPARδ and PPARα were subcloned into the pGEX-KT expression vector; made in house; host or cells: E. coli
T1 sequence (Q07869 1-468): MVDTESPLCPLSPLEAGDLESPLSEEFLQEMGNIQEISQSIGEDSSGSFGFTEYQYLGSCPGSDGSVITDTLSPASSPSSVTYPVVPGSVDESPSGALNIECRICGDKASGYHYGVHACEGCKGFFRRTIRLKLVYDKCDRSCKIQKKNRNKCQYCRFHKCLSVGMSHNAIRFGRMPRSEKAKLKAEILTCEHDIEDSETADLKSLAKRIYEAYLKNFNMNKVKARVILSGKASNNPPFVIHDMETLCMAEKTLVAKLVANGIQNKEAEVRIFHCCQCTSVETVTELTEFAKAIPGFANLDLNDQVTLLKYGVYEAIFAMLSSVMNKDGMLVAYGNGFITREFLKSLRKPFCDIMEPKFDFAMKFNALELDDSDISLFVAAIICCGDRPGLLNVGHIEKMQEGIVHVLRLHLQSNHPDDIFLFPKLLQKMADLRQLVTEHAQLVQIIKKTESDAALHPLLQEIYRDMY
Text: (§1) As an approach to identifying human PPAR agonists, a Scintillation Proximity Assay was used to characterize PPAR-γ, PPAR-δ, and PPAR-α ligands.
(§2) Human PPARγ2, human PPARδ and human PPARα were expressed as GST-fusion proteins in E. coli. The full length human cDNA for PPARγ 2 was subcloned into the pGEX-2 T expression vector (Amersham Pharmacia Biotech, Inc.). The full length human cDNAs for PPARδ and PPARα were subcloned into the pGEX-KT expression vector (Amersham Pharmacia Biotech, Inc.). E. coli containing the respective plasmids were propagated, induced, and harvested by centrifugation. The resuspended pellet was broken in a French press and debris removed by centrifugation. Recombinant human PPAR receptors were purified by affinity chromatography on glutathione sepharose. After application to the column, and one wash, receptor was eluted with glutathione. Glycerol (10%) was added to stabilize the receptor and aliquots were stored at −80° C.
(§3) After incubation for ˜16 h at 15° C. with shaking, the assay plates were counted in a Packard Topcount with quench correction.

[2] = target: T2, recombinant human PPARγ (GST-PPARγ) (Homo sapiens, UniProt P37231); experiment: Scintillation Proximity Assay, displacement of [3H2]Compound A from PPARγ; format: binding; conditions: human PPARγ binding; read-out: IC50 (μM: SPA or BND) Gamma
T2 construct: The full length human cDNA for PPARγ 2 was subcloned into the pGEX-2 T expression vector; made in house; host or cells: E. coli
T2 sequence (P37231 1-505): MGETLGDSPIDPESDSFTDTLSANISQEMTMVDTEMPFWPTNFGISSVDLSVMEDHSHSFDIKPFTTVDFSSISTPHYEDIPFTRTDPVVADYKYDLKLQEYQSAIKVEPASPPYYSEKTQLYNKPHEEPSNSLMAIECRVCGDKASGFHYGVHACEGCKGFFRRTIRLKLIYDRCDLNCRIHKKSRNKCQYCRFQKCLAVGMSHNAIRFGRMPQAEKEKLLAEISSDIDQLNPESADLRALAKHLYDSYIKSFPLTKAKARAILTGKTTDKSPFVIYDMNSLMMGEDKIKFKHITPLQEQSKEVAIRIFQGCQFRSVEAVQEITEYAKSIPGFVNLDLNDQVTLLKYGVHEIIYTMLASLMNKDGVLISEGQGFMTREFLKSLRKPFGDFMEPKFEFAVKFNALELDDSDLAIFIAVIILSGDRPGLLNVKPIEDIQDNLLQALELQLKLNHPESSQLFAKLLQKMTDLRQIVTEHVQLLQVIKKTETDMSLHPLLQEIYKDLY
Text: as §1, §2, §3

hPPARδ/GAL4 = target: T3, hPPARδ/GAL4 (Homo sapiens, UniProt Q03181); experiment: Gal-4 hPPAR transactivation assay in COS-1 cells (delta); format: cell-based; conditions: two values separated by a slash in some cells
T3 construct: expressed in transfected cells; host or cells: COS-1 cells
Description: (§4) The chimeric receptor expression constructs, pcDNA3-hPPARγ/GAL4, pcDNA3-hPPARδ/GAL4, pcDNA3-hPPARα/GAL4 were prepared by inserting the yeast GAL4 transcription factor DBD adjacent to the ligand binding domains (LBDs) of hPPARγ, hPPARδ, hPPARα, respectively. The reporter construct, pUAS(5×)-tk-luc was generated by inserting 5 copies of the GAL4 response element upstream of the herpes virus minimal thymidine kinase promoter and the luciferase reporter gene. pCMV-lacZ contains the galactosidase Z gene under the regulation of the cytomegalovirus promoter. COS-1 cells were seeded at 12×10^3 cells/well in 96 well cell culture plates in high glucose Dulbecco's modified Eagle medium (DMEM) containing 10% charcoal stripped fetal calf serum (Gemini Bio-Products, Calabasas, Calif.), nonessential amino acids, 100 units/ml Penicillin G and […] Streptomycin sulfate at 37° C. in a humidified atmosphere of 10% CO2. After 24 h, transfections were performed with Lipofectamine (GIBCO BRL, Gaithersburg, Md.) according to the instructions of the manufacturer. […] Luciferase activity in cell extracts was determined using Luciferase Assay Buffer (Promega, Madison, Wis.) in an ML3000 luminometer (Dynatech Laboratories, Chantilly, Va.). β-galactosidase activity was determined using β-D-galactopyranoside (Calbiochem, San Diego, Calif.).

hPPARγ/GAL4 = target: T4, hPPARγ/GAL4 (Homo sapiens, UniProt P37231); experiment: Gal-4 hPPAR transactivation assay in COS-1 cells (gamma); format: cell-based; conditions: two values separated by a slash in some cells
T4 construct: expressed in transfected cells; host or cells: COS-1 cells
Description: as §4

[3] = tested on: PPAR-α, PPAR-γ and PPAR-δ; experiment: Classification of ligands according to their PPAR activity (Table A); parameters: species or system human; conditions: classification based on IC50 and EC50 data of Table B

T4 sequence (P04386 1-147 partner limits assumed, one chain of several): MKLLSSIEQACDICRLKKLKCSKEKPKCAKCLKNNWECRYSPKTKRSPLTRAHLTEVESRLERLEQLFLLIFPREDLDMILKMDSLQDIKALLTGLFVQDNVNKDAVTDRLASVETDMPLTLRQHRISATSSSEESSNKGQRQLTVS
T3 sequence (Q03181 211-439 limits assumed): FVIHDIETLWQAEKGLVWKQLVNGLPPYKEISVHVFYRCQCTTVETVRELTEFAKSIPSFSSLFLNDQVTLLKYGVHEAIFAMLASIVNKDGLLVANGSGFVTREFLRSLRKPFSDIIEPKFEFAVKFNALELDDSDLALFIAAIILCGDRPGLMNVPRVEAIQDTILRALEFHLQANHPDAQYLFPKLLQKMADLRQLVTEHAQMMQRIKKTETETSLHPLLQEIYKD
T3 sequence (P04386 1-147 partner limits assumed): as the sequence (P04386 1-147 partner limits assumed, one chain of several) above

Work on CCCc1cc(Oc2ccccc2)ccc1OCCc1cc2cc(CC(=O)O)ccc2[nH]1 [Compound 2, {2-[2-(4-phenoxy-2-propylphenoxy)ethyl]-1H-indol-5-yl}acetic acid] yielded an IC50 [1] of 1.48 µM, an IC50 [2] of 0.097 µM and an EC50 (hPPARδ/GAL4) of 3 µM. For the same compound, the EC50 (hPPARγ/GAL4) was 0.18 µM and 0.05 µM and the “PPAR Activity” value [3] was “Gamma Agonist”.

Source: patent US20040242459A1 (priority 2001, published 2004)
